Experimental data from patent publication US9949980B2, “Drugs to prevent HPV infection” (Wisconsin Alumni Research Foundation, priority 2008, dated 2018).
Like-named read-outs stand apart in the source and are kept apart here.

Key:
[1] = system: HPV16 pseudoviruses; assay: microbe, parasite or virus in culture; assay type: cell-based; conditions: Human papillomavirus 16, HEK-293T, 48 h
Method: (§1) FIG. 1. High throughout screen (HTS) for identifying inhibitors of HPV infection. Shown is a schematic showing basic steps in the HTS. […] Briefly, HPV16 pseudoviruses containing the SEAP reporter genes are analyzed for their ability to infect as judged by the levels of secreted alkaline phosphatase in the tissue culture supernatant (light grey arrows). Cell viability was assessed in parallel on the same wells (dark grey arrows). In the specific HTS carried out in this study, the compounds were added at 3 uM/1% DMSO final concentration (black arrow) 4 hours prior to infection.
(§2) After incubation at 37° C. for 24 hrs, 35 μL of media was removed. […] Cells were incubated at 37° C. for 48 hrs. 2.5 μL of media was collected for SEAP assay using a PHOSPHA-LIGHT chemiluminescent alkaline phosphatase assay (Applied Biosystems). Cell viability was determined using the CellTiter Glo Luminescent Cell Viability Assay™ (Promega).

[2] = in vitro; conditions: human, Viability (CelTiter Glow)
Method: as §1, §2

[3] = read-out: Infectivity (SEAP Activity), 3 μM HTS standard concentration, 293T cells, 48 hrs
[4] = read-out: Infectivity vs. viability, 3 μM HTS standard concentration, ratio infectivity/viability

Structure (SMILES)	activity at 3 µM [1, 3]	activity at 3 µM [1, 4]	viability at 52 h, 3 μM [2]
O=C1NCCCC1c1n[nH]c(=S)n1Cc1ccccc1 (centres unmarked) [BTB 00471, 3-[4-(phenylmethyl)-5-sulfanylidene-1H-1,2,4-triazol-3-yl]piperidin-2-one]	41%	37.5%	109%
CN(C)C=C=C(O)c1ccccc1C(=O)c1ccc(Cl)cc1 [BTB 08556, (4-chlorophenyl)-[2-(3-dimethylamino-1-hydroxypropa-1,2-dienyl)phenyl]methanone]	55.3%	52%	106%
CC(C)(C)NC(=O)C=Cc1cc([N+](=O)[O-])ccc1Sc1ccc(C(F)(F)F)cn1 [BTB 09390, N1-(tert-butyl)-3-(5-nitro-2-{[5-(trifluoromethyl)-2-pyridyl]thio}phenyl)acrylamide]	28.9%	35.6%	81.2%
N#CCCOCc1cccc2ccccc12 [Compound 5102121, 3-(1-naphthylmethoxy)propanenitrile]	55.8%	50.6%	110%
CC(=NNC(N)=O)C1CC1(C)C(C)(C)C (centres unmarked) [Compound 5104160, 1-(2-tert-butyl-2-methylcyclopropyl)-1-ethanone semicarbazone]	63%	56.2%	112%
O=S(=O)(Nc1nc2ccccc2nc1Nc1ccccc1)c1ccccc1 [Compound 5123541, N-(3-anilino-2-quinoxalinyl)benzenesulfonamide]	47%	44.5%	106%
O=C(NC(NC(=S)Nc1ccccc1[N+](=O)[O-])C(Cl)(Cl)Cl)c1ccco1 (centres unmarked) [Compound 5143070, N-[2,2,2-trichloro-1-({[(2-nitrophenyl)amino]carbonothioyl}amino)ethyl]-2-furamide]	43.7%	40.5%	108%
O=C(Nc1ccc(Cl)cc1)Nc1ccc([N+](=O)[O-])cc1Br [Compound 5191771, N-(2-bromo-4-nitrophenyl)-N′-(4-chlorophenyl)urea]	39.9%	41.9%	95.2%
O=C(NC(=S)Nc1ccc([N+](=O)[O-])cc1O)C12CC3CC(CC(C3)C1)C2 [Compound 5197089, N-{[(2-hydroxy-4-nitrophenyl)amino]carbonothioyl}-1-adamantanecarboxamide]	2.01%	2.99%	67%
CCN(C(=O)c1ccccc1Cl)c1ccccc1 [Compound 5272305, 2-chloro-N-ethyl-N-phenylbenzamide]	47.4%	45.6%	104%
O=C(CSc1nc2cc([N+](=O)[O-])ccc2[nH]1)Nc1ccc2c(c1)OCO2 [Compound 5349092, N-1,3-benzodioxol-5-yl-2-[(5-nitro-1H-benzimidazol-2-yl)thio]acetamide]	52.5%	51.1%	103%
NC(=O)NC(c1ccccc1)c1ccccc1Br (centres unmarked) [Compound 5571356, N-[(2-bromophenyl)(phenyl)methyl]urea]	59.1%	56%	106%
COc1cc(C=C2C(=O)NN(c3ccc(Cl)c(Cl)c3)C2=O)c([N+](=O)[O-])cc1OC [Compound 5581710, 1-(3,4-dichlorophenyl)-4-(4,5-dimethoxy-2-nitrobenzylidene)-3,5-pyrazolidinedione]	23.9%	31.9%	75.1%
O=C1NN(c2ccc(Cl)c(Cl)c2)C(=O)C1=Cc1ccc(Cl)c([N+](=O)[O-])c1 [Compound 5585119, 4-(4-chloro-3-nitrobenzylidene)-1-(3,4-dichlorophenyl)-3,5-pyrazolidinedione]	54.4%	50.5%	108%
Cc1ccc(NC(=O)Cc2ccc(F)cc2)cc1 [Compound 5585700, 2-(4-fluorophenyl)-N-(4-methylphenyl)acetamide]	55.4%	52.5%	105%
O=[N+]([O-])c1cccc(C2Nc3ccc(Cl)cc3C3C=CCC32)c1 (centres unmarked) [Compound 5658856, 8-chloro-4-(3-nitrophenyl)-3a,4,5,9b-tetrahydro-3H-cyclopenta[c]quinoline]	14.4%	19.1%	75.7%

Structure (SMILES)	activity at 3 µM [1, 3]	activity at 3 µM [1, 4]	viability at 52 h, 3 μM [2]
COc1cccc(C(=O)Nc2ccc3oc(-c4ccc(F)cc4Cl)nc3c2)c1 [Compound 5715107, N-[2-(2-chloro-4-fluorophenyl)-1,3-benzoxazol-5-yl]-3-methoxybenzamide]	42.5%	38.2%	111%
CCOc1ccc(N(CC(=O)Nc2c(C)cccc2C)S(=O)(=O)c2ccc(SC)cc2)cc1 [Compound 5740080, N~1~-(2,6-dimethylphenyl)-N~2~-(4-ethoxyphenyl)-N~2~-{[4-(methylthio)phenyl]sulfonyl}glycinamide]	42.2%	40.7%	104%
O=C(Nc1ccccc1)Nc1nnc(Cc2ccc(F)cc2)s1 [Compound 5789300, N-[5-(4-fluorobenzyl)-1,3,4-thiadiazol-2-yl]-N′-phenylurea]	40.1%	40.8%	98.4%
O=C(Nc1sc2c(c1C(=O)NCCc1ccccc1)CCCCC2)c1ccccc1F [Compound 5794700, 2-[(2-fluorobenzoyl)amino]-N-(2-phenylethyl)-5,6,7,8-tetrahydro-4H-cyclohepta[b]thiophene-3-carboxamide]	49.2%	45.1%	109%
COc1ccc(Cl)cc1C(=O)Nc1ccc(NC(=O)c2ccc(C(C)(C)C)cc2)cc1 [Compound 5795860, N-{4-[(4-tert-butylbenzoyl)amino]phenyl}-5-chloro-2-methoxybenzamide]	47.1%	42.4%	111%
Cc1ccnc(NS(=O)(=O)c2ccc(N3C(=O)c4ccccc4C3=O)cc2)n1 [Compound 5842264, 4-(1,3-dioxo-1,3-dihydro-2H-isoindol-2-yl)-N-(4-methyl-2-pyrimidinyl)benzenesulfonamide]	67%	59.6%	113%
O=C1C(=Cc2cccc(O)c2)SC(=S)N1c1ccc(Cl)cc1 [Compound 5851060, 3-(4-chlorophenyl)-5-(3-hydroxybenzylidene)-2-thioxo-1,3-thiazolidin-4-one]	56.3%	55.3%	102%
CCOC(=O)[C@H]1C(=O)c2ccccc2C(=O)/C1=C/c1ccc(CC)cc1 [Compound 5860904, ethyl (2R,3E)-3-[(4-ethylphenyl)methylidene]-1,4-dioxonaphthalene-2-carboxylate]	21.9%	33.2%	66%
Cc1ccc(S(=O)(=O)N(C)c2ccc(Br)cc2C(=O)c2ccccc2)cc1 [Compound 5867793, N-(2-benzoyl-4-bromophenyl)-N,4-dimethylbenzenesulfonamide]	36.1%	38%	95%
COc1cc(C=C2SC(=S)NC2=O)cc(Cl)c1OC(C)C [Compound 5868253, 5-(3-chloro-4-isopropoxy-5-methoxybenzylidene)-2-thioxo-1,3-thiazolidin-4-one]	4.97%	7.45%	66.8%
CC1=C(C(=O)Nc2ccc(C)c(Cl)c2)C(c2ccc(F)cc2)NC(=O)N1 (centres unmarked) [Compound 5880766, N-(3-chloro-4-methylphenyl)-4-(4-fluorophenyl)-6-methyl-2-oxo-1,2,3,4-tetrahydro-5-pyrimidinecarboxamide]	31.9%	34.6%	92%
CSc1nsc(SC)c1NC(=O)OCC1([N+](=O)[O-])COC(C)(C)OC1 [Compound 5893711, (2,2-dimethyl-5-nitro-1,3-dioxan-5-yl)methyl [3,5-bis(methylthio)-4-isothiazolyl]carbamate]	63.3%	58.6%	108%
COn1c(=O)c(=O)n(OC)c2ccccc21 [Compound 5896361, 1,4-dimethoxy-1,4-dihydro-2,3-quinoxalinedione]	60.8%	59.3%	102%
CC(=O)SCCC(=O)N1CCn2c3c(c4cc(C)ccc42)CCCC31 (stereo not drawn) [Compound 5915049, S-[3-(8-methyl-1,2,3a,4,5,6-hexahydro-3H-pyrazino[3,2,1-jk]carbazol-3-yl)-3-oxopropyl] ethanethioate]	56.8%	55.9%	102%
CCCC(=O)NC(c1cccc([N+](=O)[O-])c1)c1ccc2cccnc2c1O (centres unmarked) [Compound 5926288, N-[(8-hydroxy-7-quinolinyl)(3-nitrophenyl)methyl]butanamide]	1.52%	2.4%	63.3%
O=C(Nc1ccc(Cl)c(Cl)c1)Nc1ccccc1C(=O)O [Compound 5963375, 2-({[(3,4-dichlorophenyl)amino]carbonyl}amino)benzoic acid]	14.2%	20.2%	–
